Results taken from ChEMBL document CHEMBL1201862, “PubChem BioAssay data set” (2004).
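Where inhibition never reached the appropriate level, the endpoint shown equals the highest concentration tested. Otherwise, values were interpolated linearly from a five-concentration, 48-hour dose response in 96-well plates. GI50 = concentration required for 50% inhibition of growth.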 Calls of active or inactive are those of the source. Cut-off read from the data, not from the text of the source: active = GI50 up to about 1.1 µM and inactive = higher.

What was measured:
Test in all cases: NCI anticancer screen, dose series, 48 h
CAKI-1 = test system: CAKI-1
BT-549 = test system: BT-549
COLO 205 = test system: COLO 205
HL-60 = test system: HL-60
MDA-MB-231 = test system: MDA-MB-231
OVCAR-4 = test system: OVCAR-4
HOP-62 = test system: HOP-62
SK-MEL-2 = test system: SK-MEL-2
SF-539 = test system: SF-539
M14 = test system: M14
MOLT-4 = test system: MOLT-4
RXF 393 = test system: RXF 393
UACC-62 = test system: UACC-62
OVCAR-5 = test system: OVCAR-5
MCF7 = test system: MCF7
TK-10 = test system: TK-10
SK-MEL-5 = test system: SK-MEL-5
HOP-92 = test system: HOP-92
Malme-3M = test system: Malme-3M
NCI/ADR-RES = test system: NCI/ADR-RES

## O=C1C=C(Br)C(=O)C12CCc1ccccc12 (stereo not given)
CAKI-1
  GI50: 6.47 µM (inactive)
BT-549
  GI50: 17.9 µM (inactive)
COLO 205
  GI50: 4.05 µM (inactive)
HL-60
  GI50: 2.69 µM (inactive)
MDA-MB-231
  GI50: 28.4 µM (inactive)
OVCAR-4
  GI50: 24.7 µM (inactive)
HOP-62
  GI50: 39 µM (inactive)
SK-MEL-2
  GI50: 19.6 µM (inactive)
SF-539
  GI50: 17.4 µM (inactive)
M14
  GI50: 12.4 µM (inactive)
MOLT-4
  GI50: 2.43 µM (inactive)
RXF 393
  GI50: 9.14 µM (inactive)
UACC-62
  GI50: 16.8 µM (inactive)
OVCAR-5
  GI50: 18 µM (inactive)
MCF7
  GI50: 16.5 µM (inactive)
TK-10
  GI50: 17.8 µM (inactive)
SK-MEL-5
  GI50: 19.7 µM (inactive)
HOP-92
  GI50: 13.5 µM (inactive)
Malme-3M
  GI50: 14.6 µM (inactive)
NCI/ADR-RES
  GI50: 27.7 µM (inactive)

## CC(=O)OCC1OC(N2C(=O)/C(=C\c3ccc(Cl)cc3)C(N)=Nc3ccccc32)C(OC(C)=O)C(OC(C)=O)C1OC(C)=O (stereo not given)
CAKI-1
  GI50: 37.3 µM (inactive)
BT-549
  GI50: 27.9 µM (inactive)
COLO 205
  GI50: 12.1 µM (inactive)
HL-60
  GI50: 33 µM (inactive)
MDA-MB-231
  GI50: 19.3 µM (inactive)
OVCAR-4
  GI50: 20.4 µM (inactive)
HOP-62
  GI50: 29.2 µM (inactive)
SK-MEL-2
  GI50: 25.4 µM (inactive)
SF-539
  GI50: 10.1 µM (inactive)
M14
  GI50: 20.2 µM (inactive)
MOLT-4
  GI50: 6.43 µM (inactive)
RXF 393
  GI50: 4.34 µM (inactive)
UACC-62
  GI50: 29.4 µM (inactive)
OVCAR-5
  GI50: 33.4 µM (inactive)
MCF7
  GI50: 11.8 µM (inactive)
TK-10
  GI50: 28.1 µM (inactive)
SK-MEL-5
  GI50: 12.7 µM (inactive)
HOP-92
  GI50: 17.2 µM (inactive)
Malme-3M
  GI50: 28.2 µM (inactive)
NCI/ADR-RES
  GI50: 51.1 µM (inactive)

## O=C(O)c1[nH]c2c([N+](=O)[O-])cc([N+](=O)[O-])cc2c1C(=O)O
CAKI-1
  GI50: > 100 µM (inactive)
BT-549
  GI50: > 100 µM (inactive)
COLO 205
  GI50: > 100 µM (inactive)
HL-60
  GI50: > 100 µM (inactive)
MDA-MB-231
  GI50: > 100 µM (inactive)
OVCAR-4
  GI50: > 100 µM (inactive)
HOP-62
  GI50: > 100 µM (inactive)
SK-MEL-2
  GI50: > 100 µM (inactive)
SF-539
  GI50: > 100 µM (inactive)
M14
  GI50: 56.1 µM (inactive)
MOLT-4
  GI50: > 100 µM (inactive)
RXF 393
  GI50: > 100 µM (inactive)
UACC-62
  GI50: > 100 µM (inactive)
OVCAR-5
  GI50: > 100 µM (inactive)
MCF7
  GI50: > 100 µM (inactive)
TK-10
  GI50: > 100 µM (inactive)
SK-MEL-5
  GI50: > 100 µM (inactive)
HOP-92
  GI50: > 100 µM (inactive)
Malme-3M
  GI50: > 100 µM (inactive)
NCI/ADR-RES
  GI50: > 100 µM (inactive)

## C=C(C)C(=O)OC1CC2(C)OC(=CC2=O)C(C)CC2OC(=O)C(=C)C12 (stereo not given)
CAKI-1
  GI50: 2.7 µM (inactive)
BT-549
  GI50: 6.25 µM (inactive)
COLO 205
  GI50: 1.23 µM (inactive)
HL-60
  GI50: 0.461 µM (active)
MDA-MB-231
  GI50: 13.5 µM (inactive)
OVCAR-4
  GI50: 3.99 µM (inactive)
HOP-62
  GI50: 19.2 µM (inactive)
SK-MEL-2
  GI50: 14.3 µM (inactive)
SF-539
  GI50: 3.91 µM (inactive)
M14
  GI50: 5.48 µM (inactive)
MOLT-4
  GI50: 2.9 µM (inactive)
RXF 393
  GI50: 1.19 µM (inactive)
UACC-62
  GI50: 10.8 µM (inactive)
OVCAR-5
  GI50: 10.4 µM (inactive)
MCF7
  GI50: 2.78 µM (inactive)
TK-10
  GI50: 7.41 µM (inactive)
SK-MEL-5
  GI50: 3.52 µM (inactive)
HOP-92
  GI50: 5.56 µM (inactive)
Malme-3M
  GI50: 3.44 µM (inactive)
NCI/ADR-RES
  GI50: 8.95 µM (inactive)

## COc1ccc(Cc2cc(OC)c(OC)c(OC)c2)cc1
CAKI-1
  GI50: 0.254 µM (active)
BT-549
  GI50: 1.54 µM (inactive)
COLO 205
  GI50: 0.143 µM (active)
HL-60
  GI50: 0.0586 µM (active)
MDA-MB-231
  GI50: 0.711 µM (active)
OVCAR-4
  GI50: 10.6 µM (inactive)
HOP-62
  GI50: 0.411 µM (active)
SK-MEL-2
  GI50: 0.218 µM (active)
SF-539
  GI50: 0.224 µM (active)
M14
  GI50: 0.411 µM (active)
MOLT-4
  GI50: 0.221 µM (active)
RXF 393
  GI50: 0.168 µM (active)
UACC-62
  GI50: 0.129 µM (active)
OVCAR-5
  GI50: 8.83 µM (inactive)
MCF7
  GI50: 0.203 µM (active)
TK-10
  GI50: 6.79 µM (inactive)
SK-MEL-5
  GI50: 0.167 µM (active)
HOP-92
  GI50: 0.805 µM (active)
Malme-3M
  GI50: 0.387 µM (active)
NCI/ADR-RES
  GI50: 0.146 µM (active)
